Data published in patent US20260007746A1, “COMPOSITIONS AND METHODS FOR TREATMENT OF INFLAMMATORY DISORDERS” (priority 2020, published 2026).

What follows are compounds tested on ConA-stimulated splenocytes (assay: Mitogen proliferative assay (MSC:splenocyte co-culture, BrdU)). Details: mAdMSC:splenocyte 1:20 and 1:10; with or without HA or E-selectin pre-incubation.
Assay type: cell-based, mouse
Method: Mitogen proliferative assays were performed as described previously (Yañez et al., 2006; Yanez et al., 2010). Briefly, splenocytes were isolated from C57BL/6 and BALB/c mice spleen cell suspensions by passage through 40-μm nylon cell strainers (Becton Dickinson), followed by red blood lysis with 0.83% ammonium chloride in 0.01 M Tris-HCl buffer pH 7.5 (Sigma-Aldrich). To induce splenocyte proliferation, 1×10^5 splenocytes were resuspended in RPMI 1640 medium (Gibco, Carlsbad, CA, United States) supplemented with 10% FBS (proliferation medium) and treated with 10 μg/ml concanavalin A (ConA) (Sigma-Aldrich). To assess for effect(s) on splenocyte proliferation, MSCs were resuspended in complete medium and seeded in wells together with splenocytes at decreasing ratios of MSC:splenocyte (from 1:1 to 1:100). After 3 days of MSC:splenocyte co-cultures, splenocyte proliferation was measured using an ELISA BrdU colorimetric kit (Roche Diagnostics). In brief, BrdU labeling reagent was added to wells 16 h before determination. Then, cells were fixed, DNA denatured and incubated with an anti-BrdU-POD antibody. After washing and substrate addition, absorbance was measured. In some experiments, UmAdMSCs and FucmAdMSCs, or FuchAdMSCs and FuchBMMSCs, were treated with sialidase from Vibrio cholerae (0.1 U/ml, Roche Diagnostics) to remove terminal sialic acids (i.e., sialUmAdMSCs and sialFucmAdMSCs, or sialFuchAdMSCs and sialFuchBMMSCs). As indicated, mMSCs or hMSCs were cultured for 24 h or 72 h with different concentrations of mE-Ig chimera or of hyaluronic acid (HA, from rooster comb; Sigma-Aldrich) for 24 h or 72 h following described protocols (Burdick et al., 2006; Thankamony and Sackstein, 2011). Briefly, mE-Ig or HA were immobilized on plates. […] In some experiments, cultures of mAdMSCs seeded on E-selectin and/or HA for 72 h were washed, then co-cultured in presence of continuous E-selectin and/or HA with murine splenocytes (at MSC:splenocyte ratio of 1:20) for 72 h in presence of ConA, and splenocyte proliferation was assessed. […]

Row | SMILES | proliferation of mitogen-stimulated splenocytes in mAdMSC co-cultures with inhibitor
1 | CNC(=N)NCCC[C@H](N)C(=O)O [N^G-monomethyl-L-arginine] | significantly rescued the proliferation
2 | NC(=O)c1ccc(-c2nc(-c3ccc4c(c3)OCO4)c(-c3ccccn3)[nH]2)cc1 [SB-431542] | significantly rescued the proliferation
3 | Cn1cc(CC(N)C(=O)O)c2ccccc21 (racemic) [1-methyl-DL-tryptophan] | significantly rescued the proliferation
